Laboratory results: publication PMC7413254 (Nature Communications, 2020)

Tests used:
[1] = system: non-expressing oocytes; format: cell-based, Xenopus laevis; details: footnote b: highest intracellular concentration tested was 30 mM (solubility); for Trans-stimulation: total [3H]CQ transport, non-expressing oocytes: mean ± SEM, SEM; for Trans-stimulation data: total [3H]CQ transport / Total [3H]CQ transport, trans-stimulation by injected solute: non-expressing oocytes; for Trans-stimulation data: total [3H]CQ transport: normalised to the oocyte type control (control = 100)
Protocol: Unless specified otherwise, the transport assays were conducted over 1.5 h at 27.5 °C and the reaction buffer was ND96 (96 mM NaCl, 2 mM KCl, 1 mM MgCl2, 1.8 mM CaCl2, 10 mM MES and 10 mM Tris-base) at pH 5.5.
The intracellular concentrations were calculated using previous estimates of the volume of stage V–VI oocytes (~400 nL[60]). […] The oocytes were injected with VF-6 suspended in 25 nL ND96 buffer adjusted to pH 5.0, 5.5, 6.0 or 7.0, which corresponded to the injection of 2.5–250 fmol of H^+. The Na^+-dependence of the trans-stimulatory effect of VF-6 was assessed by injecting the oocytes with VF-6 suspended in ND96 buffer (pH 5.5) or a Na^+-free version of this buffer (the Na^+ was replaced with choline).
At least four independent experiments were performed (on different days and using oocytes from different frogs), and within each experiment measurements were made from ten oocytes per treatment.

[2] = target: PfCRT^Dd2 (Plasmodium falciparum, UniProt Q9N623, A220S/I356T/K76T/M74I/N326S/N75E/Q271E/R371I); test: cell-based; format: cell-based; details: for Trans-stimulation data: total [3H]CQ transport / Total [3H]CQ transport, trans-stimulation by injected solute: PfCRTDd2 oocytes; for Trans-stimulation data: total [3H]CQ transport / Trans-stimulation: total [3H]CQ transport, PfCRTDd2 oocytes / Total [3H]CQ transport, trans-stimulation by injected solute: footnote b: highest intracellular concentration tested was 30 mM (solubility); for Trans-stimulation data: total [3H]CQ transport: normalised to the oocyte type control (control = 100); for PfCRT-mediated [3H]CQ transport, trans-stimulation by injected solute, PfCRTDd2 / Trans-stimulation data: PfCRT-mediated [3H]CQ transport: footnote b: due to solubility the highest intracellular concentration tested was 30 mM; for PfCRT-mediated [3H]CQ transport, trans-stimulation by injected solute, PfCRTDd2: background subtracted; for Trans-stimulation: total [3H]CQ transport, PfCRTDd2 oocytes: mean ± SEM, SEM; for Trans-stimulation data: PfCRT-mediated [3H]CQ transport: normalised to the oocyte type control = 100
Summary of the method: (§1)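 Oocytes (ten per treatment, ≥4 independent frogs/days) were preloaded by injecting VF-6 in 25 nL ND96 at pH 5.0, 5.5, 6.0 or 7.0, or Na^+-free choline buffer, then uptake run 1.5 h, 27.5 °C, ND96 pH 5.5 by default. Internal concentrations assumed ~400 nL oocyte volume.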

[3] = target: PfCRT^Ecu1110 (Plasmodium falciparum, UniProt Q9N623, A220S/I356L/K76T/N326D); test: cell-based; format: cell-based; details: for Trans-stimulation data: total [3H]CQ transport / Total [3H]CQ transport, trans-stimulation by injected solute: PfCRTEcu1110 oocytes; for Trans-stimulation data: total [3H]CQ transport / Trans-stimulation: total [3H]CQ transport, PfCRTEcu1110 oocytes / Total [3H]CQ transport, trans-stimulation by injected solute: footnote b: highest intracellular concentration tested was 30 mM (solubility); for Trans-stimulation data: total [3H]CQ transport: normalised to the oocyte type control (control = 100); for Trans-stimulation: total [3H]CQ transport, PfCRTEcu1110 oocytes: mean ± SEM, SEM; for Trans-stimulation data: PfCRT-mediated [3H]CQ transport: footnote b: due to solubility the highest intracellular concentration tested was 30 mM, normalised to the oocyte type control = 100
Summary of the method: as §1

[4] = target: PfCRT^3D7 (Plasmodium falciparum, UniProt Q8IBZ9); test: cell-based; format: cell-based; details: for Trans-stimulation data: PfCRT-mediated [3H]CQ transport: 2nd of 6 trans-stimulation columns, footnote b: due to solubility the highest intracellular concentration tested was 30 mM, normalised to the oocyte type control = 100; for Trans-stimulation data: total [3H]CQ transport / Total [3H]CQ transport, trans-stimulation by injected solute: PfCRT3D7 oocytes; for Trans-stimulation data: total [3H]CQ transport / Trans-stimulation: total [3H]CQ transport, PfCRT3D7 oocytes / Total [3H]CQ transport, trans-stimulation by injected solute: footnote b: highest intracellular concentration tested was 30 mM (solubility); for Trans-stimulation data: total [3H]CQ transport: normalised to the oocyte type control (control = 100); for Trans-stimulation: total [3H]CQ transport, PfCRT3D7 oocytes: mean ± SEM, SEM
Summary of the method: as §1

[5] = target: T1, PfNT1 (Plasmodium falciparum, UniProt Q8IDM6); test: cell-based; format: cell-based; details: footnote b: highest intracellular concentration tested was 30 mM (solubility); for Trans-stimulation data: total [3H]CQ transport / Total [3H]CQ transport, trans-stimulation by injected solute: PfNT1 oocytes; for Trans-stimulation data: total [3H]CQ transport: normalised to the oocyte type control (control = 100); for Trans-stimulation: total [3H]CQ transport, PfNT1 oocytes: mean ± SEM, SEM
T1 construct: expressed in transfected cells; host or cells: Xenopus laevis oocytes (stage V-VI), cRNA-injected
Summary of the method: as §1

PfCRT^Dd2, sequence (Q9N623 whole entry A220S/I356T/K76T/M74I/N326S/N75E/Q271E/R371I): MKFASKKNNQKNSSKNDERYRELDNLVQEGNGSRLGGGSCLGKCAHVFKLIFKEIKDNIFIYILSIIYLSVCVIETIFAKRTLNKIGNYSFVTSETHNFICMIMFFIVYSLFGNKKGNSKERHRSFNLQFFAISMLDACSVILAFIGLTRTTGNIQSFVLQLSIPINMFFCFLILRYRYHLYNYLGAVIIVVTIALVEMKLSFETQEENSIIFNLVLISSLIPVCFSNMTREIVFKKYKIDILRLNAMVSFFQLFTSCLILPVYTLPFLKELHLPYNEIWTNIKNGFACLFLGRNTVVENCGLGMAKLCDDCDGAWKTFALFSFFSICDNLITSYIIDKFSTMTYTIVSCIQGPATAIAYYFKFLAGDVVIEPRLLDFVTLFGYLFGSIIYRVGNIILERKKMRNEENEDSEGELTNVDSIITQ
PfCRT^3D7, sequence (Q8IBZ9 59-398): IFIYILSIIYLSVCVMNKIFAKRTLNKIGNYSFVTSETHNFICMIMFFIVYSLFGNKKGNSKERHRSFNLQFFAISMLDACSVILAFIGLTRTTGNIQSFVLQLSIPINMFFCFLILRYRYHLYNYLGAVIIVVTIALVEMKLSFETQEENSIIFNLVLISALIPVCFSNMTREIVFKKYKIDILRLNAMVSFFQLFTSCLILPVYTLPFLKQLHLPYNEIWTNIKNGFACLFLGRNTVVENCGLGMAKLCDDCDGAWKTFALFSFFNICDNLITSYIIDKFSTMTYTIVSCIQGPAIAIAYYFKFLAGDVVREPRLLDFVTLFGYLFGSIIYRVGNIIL
T1 sequence (Q8IDM6 whole entry): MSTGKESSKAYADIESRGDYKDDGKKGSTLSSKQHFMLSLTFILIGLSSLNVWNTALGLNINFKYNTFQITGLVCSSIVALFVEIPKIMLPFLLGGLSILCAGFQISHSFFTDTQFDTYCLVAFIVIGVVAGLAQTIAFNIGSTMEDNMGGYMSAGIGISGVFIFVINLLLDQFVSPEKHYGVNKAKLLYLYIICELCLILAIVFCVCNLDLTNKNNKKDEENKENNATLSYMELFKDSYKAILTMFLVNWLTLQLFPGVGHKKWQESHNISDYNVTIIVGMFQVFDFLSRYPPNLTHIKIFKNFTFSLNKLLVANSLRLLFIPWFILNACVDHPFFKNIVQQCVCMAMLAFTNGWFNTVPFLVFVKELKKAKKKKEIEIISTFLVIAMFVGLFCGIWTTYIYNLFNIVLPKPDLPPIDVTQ
PfCRT^Ecu1110, sequence (Q9N623 whole entry A220S/I356L/K76T/N326D): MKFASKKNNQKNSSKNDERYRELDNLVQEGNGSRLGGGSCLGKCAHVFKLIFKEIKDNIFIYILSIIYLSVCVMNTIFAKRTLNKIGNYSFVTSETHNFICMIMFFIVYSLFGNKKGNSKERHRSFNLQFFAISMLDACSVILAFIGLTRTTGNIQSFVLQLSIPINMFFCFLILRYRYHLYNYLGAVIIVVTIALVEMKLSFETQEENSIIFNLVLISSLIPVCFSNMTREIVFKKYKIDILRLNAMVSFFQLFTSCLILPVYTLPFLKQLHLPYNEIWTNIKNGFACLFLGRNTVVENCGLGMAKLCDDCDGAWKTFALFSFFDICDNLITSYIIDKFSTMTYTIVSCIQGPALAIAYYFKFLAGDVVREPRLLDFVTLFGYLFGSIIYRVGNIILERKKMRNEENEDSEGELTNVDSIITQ

Row | Sequence | Trans-stimulation: total [3H]CQ transport, non-expressing oocytes [1] | Trans-stimulation data: total [3H]CQ transport [1] [b] | Trans-stimulation data: total [3H]CQ transport [2] [b] | PfCRT-mediated [3H]CQ transport, trans-stimulation by injected solute, PfCRTDd2 [2] | Trans-stimulation: total [3H]CQ transport, PfCRTDd2 oocytes [2] | Trans-stimulation data: PfCRT-mediated [3H]CQ transport [2] [b] | Trans-stimulation data: total [3H]CQ transport [3] [b] | Trans-stimulation: total [3H]CQ transport, PfCRTEcu1110 oocytes [3] | Trans-stimulation data: PfCRT-mediated [3H]CQ transport [3] [b] | Trans-stimulation data: PfCRT-mediated [3H]CQ transport [4] [b] | Trans-stimulation data: total [3H]CQ transport [4] [b] | Trans-stimulation: total [3H]CQ transport, PfCRT3D7 oocytes [4] | Trans-stimulation data: total [3H]CQ transport [5] [b] | Trans-stimulation: total [3H]CQ transport, PfNT1 oocytes [5] | Total [3H]CQ transport, trans-stimulation by injected solute [1] | Total [3H]CQ transport, trans-stimulation by injected solute [2] | Total [3H]CQ transport, trans-stimulation by injected solute [3] | Total [3H]CQ transport, trans-stimulation by injected solute [4] | Total [3H]CQ transport, trans-stimulation by injected solute [5]
1 | VEPSDTIENVK [VK-11] | 3.1 ± 0.08b % of PfCRTDd2 control | 98 ± 2.5 | 98 ± 3.8 | 96 ± 2.1b % of PfCRTDd2 control | 98 ± 3.8b % of PfCRTDd2 control | 96 ± 2.1 | 131 ± 2.1 | 42 ± 2.1b % of PfCRTDd2 control | 127 ± 1.9 | 158 ± 1.9 | 163 ± 3.2 | 15 ± 0.3b % of PfCRTDd2 control | 98 ± 3.3 | 2.7 ± 0.03b % of PfCRTDd2 control |  |  |  |  | 
2 | LTPEEKSAVTAL [LL-12] | 3.2 ± 0.08b % of PfCRTDd2 control | 99 ± 2.4 | 100 ± 2.8 | 98 ± 1.1b % of PfCRTDd2 control | 100 ± 2.8b % of PfCRTDd2 control | 98 ± 1.1 | 100 ± 2.2 | 33 ± 1.0b % of PfCRTDd2 control | 98 ± 1.7 | 97 ± 3.4 | 99 ± 2.7 | 3.1 ± 0.05b % of PfCRTDd2 control | 99 ± 2.5 | 2.2 ± 0.06b % of PfCRTDd2 control |  |  |  |  | 
3 | NAVAHVDDMPNALSALSDLH [NH-20, additional peptide, 20 residues] |  | 101 ± 4.8 | 99 ± 2.8 | 97 ± 3.6b % of PfCRTDd2 control |  | 97 ± 3.6 | 100 ± 3.5 |  | 97 ± 3.2 | 95 ± 3.2 | 99 ± 3.5 |  | 100 ± 3.6 |  | 3.3 ± 0.07b % of the PfCRTDd2 control | 99 ± 2.8b % of the PfCRTDd2 control | 32 ± 1.7b % of the PfCRTDd2 control | 3.0 ± 0.05b % of the PfCRTDd2 control | 3.2 ± 0.07b % of the PfCRTDd2 control
4 | FESFGDLSTPDAVMGNPKVK [FK-20, additional peptide, 20 residues] |  | 100 ± 4.8 | 101 ± 4.7 | 98 ± 4.3b % of PfCRTDd2 control |  | 98 ± 4.3 | 99 ± 2.9 |  | 97 ± 2.0 | 98 ± 1.7 | 101 ± 2.7 |  | 100 ± 4.2 |  | 2.7 ± 0.06b % of the PfCRTDd2 control | 101 ± 4.7b % of the PfCRTDd2 control | 32 ± 1.7b % of the PfCRTDd2 control | 3.1 ± 0.05b % of the PfCRTDd2 control | 4.2 ± 0.03b % of the PfCRTDd2 control
5 | VHLTPEEKSAVT [VT-12] | 2.2 ± 0.03b % of PfCRTDd2 control |  | 100 ± 2.6 | 98 ± 2.2b % of PfCRTDd2 control | 100 ± 2.6b % of PfCRTDd2 control | 98 ± 2.2 | 101 ± 3.2 | 33 ± 1.6b % of PfCRTDd2 control | 99 ± 2.9 | 97 ± 2.9 | 99 ± 3.5 | 3.1 ± 0.06b % of PfCRTDd2 control | 100 ± 2.8 | 2.7 ± 0.06b % of PfCRTDd2 control |  |  |  |  | 
6 | GTFATLSELHCDK [GK-13] | 2.6 ± 0.05b % of PfCRTDd2 control | 100 ± 3.8 | 97 ± 2.7 | 95 ± 1.3b % of PfCRTDd2 control | 97 ± 2.7b % of PfCRTDd2 control | 95 ± 1.3 | 99 ± 2.2 | 32 ± 1.5b % of PfCRTDd2 control | 97 ± 1.9 | 98 ± 4.1 | 100 ± 3.6 | 3.1 ± 0.04b % of PfCRTDd2 control | 99 ± 2.7 | 2.6 ± 0.04b % of PfCRTDd2 control |  |  |  |  | 
7 | LTPEEKSAVTALWGKVNVDEVGGEA [LA-25, additional peptide, 25 residues] |  | 101 ± 3.3 | 100 ± 3.3 | 97 ± 3.3b % of PfCRTDd2 control |  | 97 ± 3.3 | 101 ± 4.3 |  | 98 ± 4.2 | 97 ± 3.1 | 99 ± 2.6 |  | 101 ± 4.1 |  | 2.5 ± 0.04b % of the PfCRTDd2 control | 100 ± 3.3b % of the PfCRTDd2 control | 33 ± 1.8b % of the PfCRTDd2 control | 3.1 ± 0.02b % of the PfCRTDd2 control | 2.7 ± 0.07b % of the PfCRTDd2 control
